From patent US6426368B2, “Method for preventing and treating alcoholism” (Warner-Lambert Company, priority 1997, dated 2002)

Legend:
Format in all cases: in vivo, rat
[1] = test system: intracolonic formalin-induced pain; assay: Formalin-induced inflammatory colonic pain in rats; details: gabapentin 100, 300, 500 mg/kg sc; CI-1008 100, 200 mg/kg sc
Description: Administration of formalin into the wall of the rat colon causes acute inflammation and visceral pain. The aim of this study was to evaluate the antinociceptive activity of gabapentin and CI-1008 in visceral pain induced by colonic intrapariental injection of formalin.
Adult female Sprague-Dawley rats weighing 240 to 260 g were used in the study. The animals were housed three per cage in a regulated environment (20±1° C., 50±5% humidity, with light 8:00 AM to 8:00 PM) prior to use in the test.
Each test animal was placed in a transparent plastic cage (27×43×28 cm) with a layer of wood shavings on the floor. Drinking water was available. […] The injection site and the zone of diffusion of Evans Blue were recorded by image analysis software. […]
As listed in increasing order of pain intensity, these behaviors were: (i) abdominal licking and nibbling (L), (ii) body stretching, i.e., backward extension of the hind limbs (B), (iii) contraction of the flanks, sometimes evolving to a stretching attitude (C), and (iv) whole body contraction, the rat standing with its back curved, occasionally further graded according to the duration of the given episode: W1 for less than 30 seconds, W2 between 30 seconds and 1 minute, and W3 for more than 1 minute. Behaviors were recorded for each animal throughout the 2-hour test on individual charts. […]

[2] = test system: TNBS-induced colonic allodynia; assay: TNBS-induced chronic colonic allodynia in rats, colonic distension threshold; details: for Colonic Threshold: TNBS rats
Description: GABA analogs were evaluated in rats suffering from chronic visceral allodynia induced by trinitrobenzene sulfonic acid (TNBS). […] In humans, digestive disorders are often associated with visceral pain. In these pathologies, the visceral pain threshold is decreased, indicating a visceral hypersensitivity. Consequently, the following study was designed to evaluate the effect of injection of TNBS into the colon on visceral pain threshold in an experimental model of colonic distension.
(§1) Male Sprague-Dawley rats weighing 340 to 400 g were used in the study. The animals were housed three per cage in a regulated environment (20±1° C., 50±5% humidity, with light 8:00 AM to 8:00 PM). Under anethesia (ketamine 80 mg/kg i.p.; acepromazin 12 mg/kg i.p.), TNBS (50 mg/kg), or saline (1.5 mL/kg) was injected into the proximal colon (1 cm from the cecum). After the surgery, animals were individually housed in the regulated environment.
(§2) A balloon catheter (5-6 cm length) was inserted through the anus into the colon and kept in position (tip of balloon 5 cm from the anus) by taping the catheter to the base of the tail. The balloon was progressively inflated by step of 5 mm Hg, from 0 to 75 mm Hg, each step of inflation lasting 30 seconds. Each cycle of colonic distension was controlled by a standard barostat. The threshold corresponds to the pressure which produced the first abdominal contraction, at which time the cycle of distension was discontinued. To determine the colonic threshold, four cycles of distension were performed on the same animal.
In a third series, a group of eight rats treated with TNBS received a subcutaneous (sc) injection of gabapentin or CI-1008 30 minutes prior to initiation of the colonic distension cycle.
All test compounds were dissolved in saline except TNBS. TNBS was dissolved in EtOH 30% (w/v). Subcutaneous injection of vehicle was given in a volume of […].
Statistical significance between each group was determined using a one-way ANOVA followed by Student's unpaired t-test. Differences were considered statistically significant at p<0.05.
(§3) Pain threshold (pressure of distension inducing the first abdominal contraction) after distal colonic distension was determined at Day 7 in two groups of awake rats: control animals and TNBS-treated animals. […] Inflammatory parameters (colon weight, area of hyperemia and necrosis and colonic myeloperoxidase content) were measured in the proximal colon at Day 7 after TNBS treatment.

colonic pain threshold = assay: Colonic pain threshold in normal rats (colonic distension); details: control animals
Description: as §1, §2

[3] = test system: cyclooxygenase product prostaglandin E2 (PGE2); assay: PGE2 content of gastric mucosa biopsies (ELISA) after indomethacin (Example 3); details: any dose tested (1-200 mg/kg oral)
Description: Gabapentin or pregabalin (CI-1008) were dissolved in water and administered orally at the following doses: 1, 10, 100, and 200 mg/kg in a volume of 1 mL. Control animals were dosed with an equal volume of vehicle (1 mL of water). Sixty minutes later, all the animals received 1 mL of a solution of indomethacin dissolved in 5% aqueous NaHCO3 (80 mg/kg). Control animals received 1 mL of 5% aqueous NaHCO3 orally. Experimental groups were as follows:
Gastric damage caused by indomethacin correlates with inhibition of the cyclooxygenase product prostaglandin E2 (PGE2). Animals were sacrificed by decapitation 4 hours post-indomethacin administration. The stomach was removed and opened along the greater curvature and its image digitized and stored on an optical disk using a 486-based PC computer equipped with CUE3 system imaging analysis software (Olympus Corp., Marietta, Ga., USA). Two 6-mm biopsies were taken from a constant region of the gastric mucosa located in each side of the glandular portion of the stomach, and their PGE2 content was measured using a commercially available ELISA kit (Assay Designs Inc., Ann Arbor, Mich., USA). The presence of gastric damage was determined using the retrieved electronic image, and the extent of damage was measured using the CUE3 imaging software. Data are expressed as a percent of gastric area damaged and the PGE2 content (pg/mL).

[4] = test system: colonic inflammatory effect of TNBS; assay: Colonic inflammatory parameters after TNBS in rats; details: gabapentin 100-500 mg/kg sc, CI-1008 30-200 mg/kg sc; Day 7 after TNBS
Description: as §3
Gabapentin (100, 300, and 500 mg/kg sc) and CI-1008 (30, 60, 100, and 200 mg/kg sc) were administered 30 minutes before colonic distension and measurement of the inflammatory parameters.

[5] = test system: rectal distension-induced abdominal contractions; assay: Abdominal response induced by rectal distension in rats (basal)
Description: Male Wistar rats weighing 250 to 350 g were surgically prepared for electromyography, according to a standard technique. Rats were anesthetized by i.p. injection of acepromazine and ketamine (Imalgene 1000, Rhöne-Mérieux, Lyon, France) at doses of 0.6 and 120 mg/kg, respectively. […] Electrodes were exteriorized on the back of the neck and protected by a glass tube attached to the skin. Animals were individually housed in polypropylene cages and kept in a temperature-controlled room (21° C.). They were allowed free access to water and food (UAR pellets, Epinay, France).
(§4) Electromyographic recording began 5 days after surgery. The electrical activity of abdominal striated muscles was recorded with an electroencephalograph machine (Mini VIII, Alvar, Paris, France) using a short-time constant (0.03 sec) to remove low-frequency signals (<3 Hz) and a paper speed of 3.6 cm/minute.
Rats were placed in plastic tunnels (6 cm diameter; 25 cm length) where they could not move, escape or turn around, in order to prevent damage to the balloon. They are accustomized to this procedure for 3 or 4 days before rectal distension (RD) in order to minimize stress reaction during experiments. […] The balloon used for distension was an arterial embolectomy catheter (Fogarty, Edwards Laboratories, Inc., Santa Ana, USA). Rectal distension (RD) was performed by insertion of the balloon (2-mm diameter; 2-cm long) in the rectum, at 1 cm of the anus, the catheter being fixed at the tail. It was inflated progressively by steps of 0.4 mL, from 0 to 1.6 mL, each step of inflation lasting 5 minutes. To detect possible leakage, the volume of water introduced in the balloon was checked by complete removal with a syringe at the end of the distension period. […]
(§5) Statistical analysis of the number of abdominal contractions occurring during each 5-minute period during RD was performed by one-way ANOVA followed by Student's paired t-test. Values were expressed as the mean±SEM, and differences were considered significant for p<0.05.

[6] = test system: lipopolysaccharide-induced delayed rectal allodynia; assay: LPS-colonic hypersensitivity assay (LPS-induced delayed rectal allodynia); details: 30 mg/kg 30 minutes prior to rectal distension; 12 hours after LPS 1 mg/kg IP; volume 0.4 mL; LPS alone 9.7±1.0, before LPS 3.7±1.0
Source text: The GABA analogs also have been evaluated for their ability to control and treat gastrointestinal disorders characterized as IBD and IBS. The assay utilized to evaluate the GABA analogs measures the effects of compound on lipopolysaccharide-induced delayed rectal allodynia in rats. Intraperitoneal (IP) injections of the endotoxin lipopolysaccharide (LPS) are known to induce long-lasting hyperalgesia in somatic pain models. The following assay LPS-colonic hypersensitivity assay was designed to evaluate the effect of IP injections of LPS on pain visceral threshold in an experimental model of rectal distension.
Male Wistar rats weighing 250 to 350 g were surgically prepared for electromyography, according to a standard technique. […]
as §4, with “cm/minute. […]” for “cm/minute.”
as §5

Structure (SMILES) | pain score induced by intracolonic formalin [1] | Colonic Threshold ([2]; 30 mg/kg sc 30 min before distension, TNBS 17.81, Sham 33.44, Control 43.39) [mm Hg] | Colonic Threshold ([2]; 60 mg/kg sc, TNBS 17.81, Control 43.39) [mm Hg] | allodynia induced by TNBS ([2]; 100 mg/kg sc) | inhibition of TNBS-induced colonic allodynia / decrease in pain threshold (dose relation) ([2]; gabapentin 100, 300, 500 mg/kg sc, CI-1008 30, 60, 100, 200 mg/kg sc, 30 minutes before colonic distension) | colonic pain threshold in normal conditions (colonic pain threshold; 200 mg/kg sc) | modification of indomethacin inhibition of PGE2 [3] | colonic inflammatory effect of TNBS (colon weight, hyperemia, necrosis, myeloperoxidase) [4] | number of cramps on rectal distension ([5]; 10 mg/kg injected 120 minutes before rectal distension, all distension volumes) | number of cramps on rectal distension ([5]; 30 mg/kg injected 120 minutes before rectal distension, all distension volumes) | number of cramps on rectal distension ([5]; 30 mg/kg, distension volumes of 0.4 and 0.8 mL) | number of abdominal contractions [6] | TNBS-induced decrease in pain threshold after colonic distension ([2]; 0.1 mg/kg sc) | colonic pain threshold in normal conditions (colonic pain threshold; 0.3 mg/kg sc)
CC(C)C[C@H](CN)CC(=O)O [CI-1008, (S)-3-(aminomethyl)-5-methylhexanoic acid] | significantly and dose-dependently decreased the pain score | 21.72 | 25.47 | completely suppressed | dose-related inhibition | neither gabapentin (500 mg/kg sc) nor CI-1008 (200 mg/kg sc) modified the colonic pain threshold | Neither gabapentin nor CI-1008, at any dose tested, were able to significantly modify this effect | neither gabapentin nor CI-1008 inhibited the colonic inflammatory effect of TNBS | had a similar effect at all distension volumes | had a similar effect at all distension volumes | reduced the number of cramps | 1.8±0.9 | – | –
CN1CC[C@]23c4c5ccc(O)c4O[C@H]2[C@@H](O)C=C[C@H]3[C@H]1C5 [Morphine] | – | – | – | – | – | – | – | – | – | – | – | – | completely suppressed | significantly increased the colonic pain threshold
